Laboratory results reported in US12275731B2, “Azaindole inhibitors of wild-type and mutant forms of LRRK2” (DANA-FARBER CANCER INSTITUTE, INC., priority 2018, dated 2025).

Tests used:
Experiment in all cases: KinomeScan profiling
Type in all cases: binding
[1] = target: T1, SNARK (Homo sapiens, UniProt Q9H093); settings: read-out: % control
T1 construct: purchased KinomeScan® (panel service)
T1 sequence (Q9H093 1-628): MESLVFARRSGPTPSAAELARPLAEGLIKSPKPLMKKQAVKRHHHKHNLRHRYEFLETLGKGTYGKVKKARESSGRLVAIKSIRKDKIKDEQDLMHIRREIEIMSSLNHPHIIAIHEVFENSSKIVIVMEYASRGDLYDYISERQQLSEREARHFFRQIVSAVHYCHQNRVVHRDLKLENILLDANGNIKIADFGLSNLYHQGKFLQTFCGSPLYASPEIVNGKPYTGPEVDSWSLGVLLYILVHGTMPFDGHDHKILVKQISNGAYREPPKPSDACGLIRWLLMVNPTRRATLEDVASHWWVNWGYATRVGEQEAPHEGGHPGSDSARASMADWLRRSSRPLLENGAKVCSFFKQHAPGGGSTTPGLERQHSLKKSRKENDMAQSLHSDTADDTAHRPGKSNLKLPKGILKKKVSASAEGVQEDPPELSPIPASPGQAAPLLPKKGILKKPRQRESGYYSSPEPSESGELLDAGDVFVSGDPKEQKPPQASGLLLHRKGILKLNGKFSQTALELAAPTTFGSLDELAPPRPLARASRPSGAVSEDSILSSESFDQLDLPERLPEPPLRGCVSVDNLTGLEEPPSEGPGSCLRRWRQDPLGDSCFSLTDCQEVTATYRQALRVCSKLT
How it was run: (§1)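 First, compounds in DMSO are added at 1 μM to each of 468 kinase assays. Next, RLU signals are normalised between positive control (0%) and DMSO (100%). Finally, kinases under 35% are flagged active.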

[2] = target: T2, DRAK2 (Homo sapiens, UniProt O94768); settings: DRAK2, 1 μM; read-out: % control
T2 sequence (O94768 1-372): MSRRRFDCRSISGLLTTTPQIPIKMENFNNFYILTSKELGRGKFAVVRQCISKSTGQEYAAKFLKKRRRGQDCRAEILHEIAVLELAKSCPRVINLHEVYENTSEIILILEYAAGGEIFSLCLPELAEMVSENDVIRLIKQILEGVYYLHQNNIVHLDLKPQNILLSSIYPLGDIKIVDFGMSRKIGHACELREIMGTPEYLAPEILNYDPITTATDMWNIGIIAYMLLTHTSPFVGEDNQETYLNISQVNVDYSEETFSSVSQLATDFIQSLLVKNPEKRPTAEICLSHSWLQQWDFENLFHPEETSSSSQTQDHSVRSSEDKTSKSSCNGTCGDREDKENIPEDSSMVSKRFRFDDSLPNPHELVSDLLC
How it was run: as §1

[3] = target: T3, SNRK (Homo sapiens, UniProt Q9NRH2); settings: read-out: % control
T3 construct: purchased KinomeScan® (panel service)
T3 sequence (Q9NRH2 1-765): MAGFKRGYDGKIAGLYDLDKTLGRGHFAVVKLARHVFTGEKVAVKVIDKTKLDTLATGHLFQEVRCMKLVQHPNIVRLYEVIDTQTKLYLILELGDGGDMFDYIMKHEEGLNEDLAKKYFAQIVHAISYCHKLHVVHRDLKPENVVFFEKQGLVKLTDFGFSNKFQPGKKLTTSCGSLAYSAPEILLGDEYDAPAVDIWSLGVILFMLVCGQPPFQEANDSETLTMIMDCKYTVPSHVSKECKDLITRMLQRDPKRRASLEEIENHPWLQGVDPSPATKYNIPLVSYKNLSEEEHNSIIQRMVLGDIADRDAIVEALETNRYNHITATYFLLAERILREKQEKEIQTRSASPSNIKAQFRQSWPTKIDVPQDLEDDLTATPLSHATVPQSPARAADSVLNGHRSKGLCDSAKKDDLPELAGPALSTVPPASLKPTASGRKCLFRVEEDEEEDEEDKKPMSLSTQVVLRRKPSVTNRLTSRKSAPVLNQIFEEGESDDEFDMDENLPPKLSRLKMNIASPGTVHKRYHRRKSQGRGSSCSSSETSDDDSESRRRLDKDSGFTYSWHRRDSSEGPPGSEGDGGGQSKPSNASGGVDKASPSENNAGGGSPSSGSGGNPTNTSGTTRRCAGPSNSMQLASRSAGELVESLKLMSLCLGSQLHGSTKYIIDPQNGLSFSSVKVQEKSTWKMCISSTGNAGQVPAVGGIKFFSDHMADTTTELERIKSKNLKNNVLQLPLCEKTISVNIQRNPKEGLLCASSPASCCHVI
How it was run: as §1

[4] = target: T4, DCAMKL2 (Homo sapiens, UniProt Q8N568); settings: DCAMKL2, 1 μM; read-out: % control
T4 sequence (Q8N568 1-766): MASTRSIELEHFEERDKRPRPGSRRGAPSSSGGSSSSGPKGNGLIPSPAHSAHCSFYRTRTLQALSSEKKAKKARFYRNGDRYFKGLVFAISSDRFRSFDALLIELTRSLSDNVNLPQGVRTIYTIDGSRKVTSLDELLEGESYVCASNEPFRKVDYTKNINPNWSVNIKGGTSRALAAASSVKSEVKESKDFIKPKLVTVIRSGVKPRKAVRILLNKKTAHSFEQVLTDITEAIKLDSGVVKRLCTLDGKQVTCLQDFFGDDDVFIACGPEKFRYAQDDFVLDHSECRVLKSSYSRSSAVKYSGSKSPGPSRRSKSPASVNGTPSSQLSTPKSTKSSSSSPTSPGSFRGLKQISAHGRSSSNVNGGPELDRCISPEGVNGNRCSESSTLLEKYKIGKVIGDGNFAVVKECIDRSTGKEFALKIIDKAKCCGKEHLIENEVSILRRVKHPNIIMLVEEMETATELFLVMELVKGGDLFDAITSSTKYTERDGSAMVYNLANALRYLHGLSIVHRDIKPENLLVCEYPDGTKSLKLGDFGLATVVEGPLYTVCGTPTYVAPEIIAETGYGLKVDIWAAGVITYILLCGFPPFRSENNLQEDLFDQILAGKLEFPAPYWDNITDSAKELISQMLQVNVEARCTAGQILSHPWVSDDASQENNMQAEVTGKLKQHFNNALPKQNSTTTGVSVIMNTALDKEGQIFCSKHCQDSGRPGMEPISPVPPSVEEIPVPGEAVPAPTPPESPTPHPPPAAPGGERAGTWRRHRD
How it was run: as §1

[5] = target: HCK (Homo sapiens, UniProt P08631); settings: read-out: % control
HCK, sequence (P08631 whole entry): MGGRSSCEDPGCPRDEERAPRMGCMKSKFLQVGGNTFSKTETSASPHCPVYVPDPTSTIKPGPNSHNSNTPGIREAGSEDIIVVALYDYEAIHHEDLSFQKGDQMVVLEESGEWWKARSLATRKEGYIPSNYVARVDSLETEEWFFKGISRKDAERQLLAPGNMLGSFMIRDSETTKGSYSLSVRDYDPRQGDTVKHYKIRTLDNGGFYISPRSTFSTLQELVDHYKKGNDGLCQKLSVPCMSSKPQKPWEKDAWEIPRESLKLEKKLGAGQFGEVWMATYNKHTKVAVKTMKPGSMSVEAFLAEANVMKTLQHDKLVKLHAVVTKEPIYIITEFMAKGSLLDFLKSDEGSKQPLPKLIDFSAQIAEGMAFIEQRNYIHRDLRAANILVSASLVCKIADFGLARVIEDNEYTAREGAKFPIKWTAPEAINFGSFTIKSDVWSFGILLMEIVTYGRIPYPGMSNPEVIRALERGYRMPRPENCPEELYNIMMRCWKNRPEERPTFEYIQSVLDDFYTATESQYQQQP
How it was run: as §1

[6] = target: PRKR (Homo sapiens, UniProt P19525); settings: read-out: % control
PRKR, sequence (P19525 whole entry): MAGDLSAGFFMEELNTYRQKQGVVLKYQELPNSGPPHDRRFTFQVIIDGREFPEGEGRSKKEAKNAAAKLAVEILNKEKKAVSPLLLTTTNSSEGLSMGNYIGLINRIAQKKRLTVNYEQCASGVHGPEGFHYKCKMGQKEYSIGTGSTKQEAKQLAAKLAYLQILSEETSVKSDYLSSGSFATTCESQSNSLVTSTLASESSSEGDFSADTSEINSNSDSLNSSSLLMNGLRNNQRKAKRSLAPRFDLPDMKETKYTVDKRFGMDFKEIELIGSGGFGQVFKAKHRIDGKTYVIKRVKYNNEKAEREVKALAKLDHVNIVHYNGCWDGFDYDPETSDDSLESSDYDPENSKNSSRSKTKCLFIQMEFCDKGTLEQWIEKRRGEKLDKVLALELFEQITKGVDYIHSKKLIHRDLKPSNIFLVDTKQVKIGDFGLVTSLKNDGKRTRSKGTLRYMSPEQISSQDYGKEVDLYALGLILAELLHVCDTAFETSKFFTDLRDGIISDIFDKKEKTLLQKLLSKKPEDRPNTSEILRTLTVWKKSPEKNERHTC
How it was run: as §1

SMILES	remaining binding at 1 µM [1]	remaining binding at 1 µM [2]	remaining binding at 1 µM [3]	remaining binding at 1 µM [4]	remaining binding at 1 µM [5]	remaining binding at 1 µM [6]
CNc1c(-c2cnn([C@H]3CCN(C(C)=O)C[C@@H]3F)c2)cnc2[nH]cc(Cl)c12 [Compound 77, 1-((3S,4S)-4-(4-(3-chloro-4-(methylamino)-1H-pyrrolo[2,3-b]pyridin-5-yl)-1H-pyrazol-1-yl)-3-fluoropiperidin-1-yl)ethan-1-one]	96%	47%	100%	89%	100%	68%
O=C(c1ccc(-c2cnc3[nH]cc(Cl)c3c2NC2CCCC2)cc1)N1CCC(N2CCOCC2)CC1 [Compound 101, (4-(3-chloro-4-(cyclopentylamino)-1H-pyrrolo[2,3-b]pyridin-5-yl)phenyl)(4-morpholinopiperidin-1-yl)methanone]	33%	92%	100%	99%	96%	82%
CNc1c(-c2ccc(C(=O)N3CCC(N4CCOCC4)CC3)cc2)cnc2[nH]cc(Cl)c12 [Compound 96, (4-(3-chloro-4-(methylamino)-1H-pyrrolo[2,3-b]pyridin-5-yl)phenyl)(4-morpholinopiperidin-1-yl)methanone]	64%	19%	100%	78%	100%	70%
